# Assay results: BindingDB's records for doi:10.3109/14756366.2011.637200 (Kirklareli University, 2013)
# Columns and labels:
# Experiment in all cases: CA Inhibition Assay
# Conditions in all cases: pH 7.5; 25 °C
# [1] = target: Carbonic anhydrase 1 (Homo sapiens, UniProt P00915)
# [2] = target: Carbonic anhydrase 2 (Homo sapiens, UniProt P00918)
# [3] = target: Carbonic anhydrase 6 (Homo sapiens, UniProt P23280)
# Sequence of Carbonic anhydrase 6 (P23280 whole entry): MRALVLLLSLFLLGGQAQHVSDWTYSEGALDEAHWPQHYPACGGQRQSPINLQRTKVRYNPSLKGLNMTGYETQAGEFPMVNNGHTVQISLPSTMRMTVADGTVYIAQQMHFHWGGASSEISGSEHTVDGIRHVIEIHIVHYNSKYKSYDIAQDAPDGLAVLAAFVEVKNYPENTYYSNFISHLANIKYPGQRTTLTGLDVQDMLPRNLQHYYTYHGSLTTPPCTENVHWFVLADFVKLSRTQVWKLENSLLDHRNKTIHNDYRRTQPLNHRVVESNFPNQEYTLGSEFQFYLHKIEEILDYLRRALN
# Sequence of Carbonic anhydrase 1 (P00915 whole entry): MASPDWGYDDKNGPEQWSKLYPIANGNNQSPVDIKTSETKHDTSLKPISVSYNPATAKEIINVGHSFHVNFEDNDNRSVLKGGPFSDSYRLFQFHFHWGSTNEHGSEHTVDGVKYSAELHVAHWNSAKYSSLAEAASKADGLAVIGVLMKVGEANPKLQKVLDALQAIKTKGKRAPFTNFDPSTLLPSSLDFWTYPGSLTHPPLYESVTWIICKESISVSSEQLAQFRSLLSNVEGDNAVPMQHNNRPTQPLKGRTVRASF
SMILES,Ki [1] [nM],Ki [2] [nM],Ki [3] [nM]
Cc1ncc(C[n+]2csc(CCO)c2C)c(N)n1 [Vitamin B 1],380,85,62
"Cc1c(CCO)sc[n+]1Cc1ccccc1 [CA inhibitor, 2]",1150,105,128
"Cc1c(CCO)sc[n+]1C [CA inhibitor, 1]",2270,784,593
